Experiments:
Test in all cases: relative viability (nuclei count vs DMSO), 5 days (fraction); higher = more cells survive
Alisertib + Luminespib = compound: COc1cc(Nc2ncc3c(n2)-c2ccc(Cl)cc2C(c2c(F)cccc2OC)=NC3)ccc1C(=O)O [Alisertib] + CCNC(=O)c1noc(-c2cc(C(C)C)c(O)cc2O)c1-c1ccc(CN2CCOCC2)cc1 [Luminespib] (partner 0.01 µM)
Outline: (§1)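 Each reported value is a median over duplicate plates. It expresses relative viability: treated-well nuclei count divided by vehicle-well nuclei count. Lung cancer cell lines in 1536-well plates were dosed by pin tool a day after seeding, alone with one drug or with a fixed anchor-drug dose plus five library-drug doses (not always all listed) in √10 steps, and nuclei were counted after 5 days.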

Alisertib + Bortezomib = compound: COc1cc(Nc2ncc3c(n2)-c2ccc(Cl)cc2C(c2c(F)cccc2OC)=NC3)ccc1C(=O)O [Alisertib] + CC(C)C[C@H](NC(=O)[C@H](Cc1ccccc1)NC(=O)c1cnccn1)B(O)O [Bortezomib] (partner 0.002 µM)
Outline: as §1

Alisertib + Dasatinib = compound: COc1cc(Nc2ncc3c(n2)-c2ccc(Cl)cc2C(c2c(F)cccc2OC)=NC3)ccc1C(=O)O [Alisertib] + Cc1nc(Nc2ncc(C(=O)Nc3c(C)cccc3Cl)s2)cc(N2CCN(CCO)CC2)n1 [Dasatinib] (partner 0.075 µM)
Outline: as §1

Alisertib + Palbociclib = compound: COc1cc(Nc2ncc3c(n2)-c2ccc(Cl)cc2C(c2c(F)cccc2OC)=NC3)ccc1C(=O)O [Alisertib] + CC(=O)c1c(C)c2cnc(Nc3ccc(N4CCNCC4)cn3)nc2n(C2CCCC2)c1=O [Palbociclib] (partner 0.5 µM)
Outline: as §1

Cell Line	relative viability (Alisertib + Luminespib; first compound 0.005 µM)	relative viability (Alisertib + Luminespib; first compound 0.01581 µM)	relative viability (Alisertib + Luminespib; first compound 0.05 µM)	relative viability (Alisertib + Luminespib; first compound 0.1581 µM)	relative viability (Alisertib + Luminespib; first compound 0.5 µM)	relative viability (Alisertib + Bortezomib; first compound 0.005 µM)	relative viability (Alisertib + Bortezomib; first compound 0.01581 µM)	relative viability (Alisertib + Bortezomib; first compound 0.05 µM)	relative viability (Alisertib + Bortezomib; first compound 0.1581 µM)	relative viability (Alisertib + Bortezomib; first compound 0.5 µM)	relative viability (Alisertib + Dasatinib; first compound 0.005 µM)	relative viability (Alisertib + Dasatinib; first compound 0.01581 µM)	relative viability (Alisertib + Dasatinib; first compound 0.05 µM)	relative viability (Alisertib + Dasatinib; first compound 0.1581 µM)	relative viability (Alisertib + Dasatinib; first compound 0.5 µM)	relative viability (Alisertib + Palbociclib; first compound 0.005 µM)	relative viability (Alisertib + Palbociclib; first compound 0.01581 µM)	relative viability (Alisertib + Palbociclib; first compound 0.05 µM)	relative viability (Alisertib + Palbociclib; first compound 0.1581 µM)	relative viability (Alisertib + Palbociclib; first compound 0.5 µM)
NCI-H727	0.366	0.325	0.557	0.24	0.169	0.796	0.795	0.46	0.329	0.301	0.425	0.357	0.397	0.243	0.242	0.565	0.647	0.534	0.483	0.474
NCI-H1993	0.891	0.791	0.558	0.456	0.492	0.97	0.982	0.549	0.542	0.497	0.538	0.644	0.474	0.386	0.433	0.583	0.672	0.529	0.402	0.35
NCI-H1437	1.01	0.919	0.707	0.462	0.237	0.489	0.457	0.191	0.191	0.114	0.35	0.403	0.314	0.17	0.0967	0.241	0.289	0.217	0.172	0.144
201T	1.16	0.971	0.816	0.576	0.362	1.05	1.07	1.08	1.07	0.694	0.527	0.556	0.583	0.327	0.284	0.351	0.33	0.327	0.28	0.24
ChaGo-K-1	0.565	0.451	0.258	0.169	0.217	0.88	0.696	0.322	0.276	0.232	0.488	0.6	0.277	0.165	0.162	0.817	0.686	0.219	0.203	0.166
NCI-H1650	0.19	0.194	0.171	0.196	0.177	0.175	0.21	0.174	0.182	0.199	0.325	0.298	0.164	0.138	0.125	0.292	0.328	0.233	0.116	0.188
LOU-NH91	0.334	0.311	0.297	0.293	0.291	0.509	0.427	0.388	0.364	0.405	0.526	0.624	0.477	0.351	0.296	0.505	0.529	0.511	0.501	0.397
HOP-62	0.845	0.808	0.288	0.259	0.153	0.459	0.703	0.82	0.195	0.117	0.537	0.688	0.433	0.185	0.154	0.431	0.489	0.233	0.188	0.14

From the supplement of paper PMC10307832
